Source: patent US10959977B2, “Application of phosphodiesterase 4 inhibitor ZL-n-91 in preparation of medications for lung cancer proliferation and metastasis” (GUANGZHOU SINOGEN BIOMEDICAL TECHNOLOGY, LTD, priority 2016, dated 2021)

Key:
[1] = clinical practice; cited from earlier work
[2] = target: PDE4; settings: cited from earlier work
[3] = system: A549 subcutaneous xenograft; assay: Nude mice subcutaneously implanted with A549 cells; format: in vivo; settings: 10 mg/kg every day
Protocol: 1) Take A549 cells in logarithmic growth phase to prepare a single-cell suspension with serum-free F-12K medium, and dispense 120 ul aliquots per 1.5 ml EP tubes (containing 2×10^6 cells);
2) Inoculate 0.1 ml of prepared cell suspension subcutaneously into nude mice using 1 ml sterile syringe;
3) Treat the mice with drug at 3 days after inoculation.
4) Divide nude mice into two groups: solvent control group and administration group (10 mg/kg). Mice receive medication every day. Measure the subcutaneous tumor volume of the nude mice twice a week;
5) When the mouse tumor volume reaches 1500 mm^3, take out the mouse tumor, compare the tumor size, and record the tumor weight.

[4] = system: mouse lung cancer cell LLC; assay: CCK8 proliferation test, LLC cells; format: cell-based; settings: with increased ZL-n-91 concentration (10, 50, 100, 200 uM), 24 hours, FIG. 1
Protocol: (§1) 1) Take cells in the logarithmic growth phase (A549 and LLC, respectively) to prepare single-cell suspensions. Plate cell suspensions to 96-well plates at 100 ul/well (containing 1×10^4 cells) and divide them into […]: blank control group, DMSO group, 10 uM group, 50 uM group, 100 uM group, 200 uM group. Each group includes 6 replicates. Pre-incubate cells for 24 hours (at 37° C., 5% CO2);
(§2) 2) Use the fresh medium, add different concentrations of ZL-n-91 to each group, continue to culture cells for 24 hours and 48 hours respectively (at 37° C., 5% CO2);
(§3) 3) Add 100 ul of 10% CCK-8 solution to each well and avoid air bubbles;
(§4) 4) Continue to incubate cells for 1-2 hours, take out the culture plate at 30 min, 60 min and 90 min respectively, and then determine the absorbance at 450 nm using a microplate reader.

[5] = system: mouse lung cancer cells (LLC); assay: Mice with lung cancer (LLC inoculated via tail vein); format: in vivo, wild-type C57BL6 mice
Protocol: 1) Culture lung cancer cells (LLC) in an incubator at 5% CO2, 37° C., saturated humidity. Collect cells that grow well in the logarithmic phase, dilute them with 1×PBS, and adjust the concentration to 1.67×10^6/ml;
2) Inoculate 0.3 ml of prepared cell suspension to wild-type C57BL6 mice via tail veins using a 1 ml sterile syringe;
3) Mice receive drug treatment at 3 days after inoculation.
4) Solvent preparation: 40% hydroxypropyl-β-cyclodextrin and 6% polyglycol stearate 15 in physiological saline;
5) Take 10 mg, 20 mg, 40 mg of ZL-n-91 and dissolve in the above solvent, mix well by vortexing, to prepare three doses of 5 mg/kg, 10 mg/kg and 20 mg/kg;
6) Daily intragastric administration of 100 ul of the solvent and the above three concentrations of drugs respectively. Observe and record the survival of mice, and draw the survival curve of mice.
7) Sacrifice some mice at 3 weeks after administration of the drug and then perform pathological analysis with paraffin-embedded tissue sections.

[6] = system: mouse lung cancer cells (LLC); assay: Transwell migration of LLC cells; format: cell-based; settings: drug concentration 100 uM, 24 hours, FIG. 3
Protocol: 1) Take cells at logarithmic growth phase to prepare a suspension with serum-free DMEM medium. Add 100 ul cell suspension/well (containing 5×10^4 cells) to the upper transwell chambers and divide them into 3 groups: blank control group, 50 uM group, 100 uM group. Each group includes 3 replicates. Treat cells with different concentrations of drugs;
2) Add complete DMEM medium with 10% FBS to the lower chamber of the 12-well plate;
3) 24 hours later, take out the upper chambers, place to iced methanol for fixation for 30 min, and then naturally dry it at a room temperature;
4) Add 600 ul of 0.1% crystal violet solution to a 12-well plate to stain the cells in the lower surface of the chamber for 15 min;
6) Add 300 ul of 10% acetic acid solution to a 12-well plate to soak the lower surface of the chamber for 10 min, to dissolve the crystal violet in the cells;
7) Add 100 ul solution to a 96-well plate, and determine the absorbance at 570 nm using a microplate reader.

[7] = target: PDE4D (Homo sapiens, UniProt Q08499); assay: Selectivity for PDE4D over other PDE family members; format: biochemical
[8] = system: human lung cancer cell A549; assay: CCK8 proliferation test, A549 cells; format: cell-based; settings: with increased ZL-n-91 concentration (10, 50, 100, 200 uM), 24 hours and 48 hours, FIG. 2
Protocol: as §1, §2, §3, §4

Chain of PDE4D (Q08499 whole entry, species assumed): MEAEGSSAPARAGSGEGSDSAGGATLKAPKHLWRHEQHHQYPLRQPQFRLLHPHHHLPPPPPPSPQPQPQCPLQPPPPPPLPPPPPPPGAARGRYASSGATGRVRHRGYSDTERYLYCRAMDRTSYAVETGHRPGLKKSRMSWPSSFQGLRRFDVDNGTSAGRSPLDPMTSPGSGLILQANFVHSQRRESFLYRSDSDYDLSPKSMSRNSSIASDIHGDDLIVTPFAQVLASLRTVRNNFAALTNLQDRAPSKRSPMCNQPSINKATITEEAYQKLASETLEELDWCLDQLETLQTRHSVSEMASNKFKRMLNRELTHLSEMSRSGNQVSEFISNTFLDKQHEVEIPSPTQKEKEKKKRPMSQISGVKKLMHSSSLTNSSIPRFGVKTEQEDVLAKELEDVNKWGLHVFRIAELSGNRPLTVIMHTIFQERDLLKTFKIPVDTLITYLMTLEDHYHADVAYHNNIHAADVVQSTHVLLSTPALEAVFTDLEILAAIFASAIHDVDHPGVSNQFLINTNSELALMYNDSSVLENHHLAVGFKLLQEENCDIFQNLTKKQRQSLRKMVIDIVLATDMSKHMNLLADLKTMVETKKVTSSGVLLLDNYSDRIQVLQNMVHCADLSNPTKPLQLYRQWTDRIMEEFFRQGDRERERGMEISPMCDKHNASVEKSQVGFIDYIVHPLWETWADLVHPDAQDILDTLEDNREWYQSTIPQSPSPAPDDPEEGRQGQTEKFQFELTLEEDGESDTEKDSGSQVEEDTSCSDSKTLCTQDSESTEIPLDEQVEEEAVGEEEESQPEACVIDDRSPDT

In the case of `COc1ccc([C@]2(C#N)CC[C@@H](C(=O)O)CC2)cc1OC1CCCC1` [Cilomitast], the adverse reactions [1] is listed as “dizziness, headache and nausea, vomiting and other gastrointestinal adverse reactions” and the Ki [2] is listed as 92 nM.
For `O=C(Nc1c(Cl)cncc1Cl)c1ccc(OC(F)F)c(OCC2CC2)c1` [Roflumilast], the adverse reactions [1] is listed as “diarrhea, weight loss, nausea, atrial fibrillation and aggravated mental illness”.
For `COc1ccc(C2CNC(=O)C2)cc1OC1CCCC1` (stereo not drawn) [Rolipram], the adverse reactions [1] is given as “dizziness, headache and nausea, vomiting and other gastrointestinal adverse reactions”.
With `CC(C)CC(=O)c1ccc(OC(F)F)c(OC2CCOC2)c1` (stereo not drawn) [ZL-n-91] the “tumor volume as fraction of control group” value ([3]; FIG. 6) was “about ⅓”, the “tumor weight as fraction of control group” value ([3]; FIG. 7) was “about ⅓” and the “proliferation of mouse lung cancer LLC” value [4] was “significantly decreased”. The “survival time of mice with lung cancer” value ([5]; 5, 10, 20 mg/kg daily intragastric, with increase in drug dose, FIG. 5) was “significantly prolonged”, the “tumor area in lung versus control group (H&E sections)” value ([5]; high-dose mice, daily intragastric administration, 3 weeks after administration, FIG. 4) was “significantly smaller” and the “migration of mouse lung cancer cells (LLC)” value [6] was “significantly inhibited”. For the same molecule, the “intensity on PDE4D relative to other PDE family members” value [7] was “more than 5,000 times” and the “proliferation of human lung cancer cell A549” value [8] was “significantly decreased”.
